Data on three compounds can be found in patent US20060252699A1, “Method for lowering serum homocysteine” (priority 2004, published 2006).

Test [1] has as its system serum homocysteine. Kind of test: L-isoleucine therapy for 10 weeks in postmenopausal women: serum homocysteine. It counts as in vivo, human. The procedure:
L-isoleucine therapy (3-5 grams/day divided into two doses per day) was administered to 17 postmenopausal women for 10 weeks. The L-isoleucine therapy was associated with an 11% average reduction in serum homocysteine levels among 14 post menopausal woman experiencing hot flashes.

In test [2] the test system is methylmalonyl CoA mutase (MCM). The note with it: brain astrocytes, in vitro; cited from earlier work.

The structures appear in SMILES notation. Where “and” joins values, the source holds several entries; their conditions need not be identical. Equal entries are not always repeated.

Take `CC[C@H](C)[C@H](N)C(=O)O` [L-isoleucine]: in test [1] (among 14 post menopausal women experiencing hot flashes, 10 weeks), the “average reduction in serum homocysteine levels” value worked out at 11%. Besides, the “reduction in serum homocysteine” value is on record as over 30% in test [1] (in 2 participants) and over 20% in test [1] (in 5 participants). Moreover, in test [1] (individual participants, 10 week values (l), L-isoleucine 3-5 grams/day divided into two doses), the homocysteine is 9.8 umol/L and 4.8 umol/L and 7 umol/L (2×) and 7.1 umol/L and 8.7 umol/L and 7.9 umol/L and 6.1 umol/L and 10.8 umol/L and 8.3 umol/L (2×) and 5.1 umol/L and 6.6 umol/L and 6.7 umol/L. For the same compound, the “% reduction (homocysteine)” value in test [1] (individual participants, 10 week vs baseline, given as fraction) is 0.3043 and 0.2473 and 0.01389 and 0 and 0.1319 and 0.04688 and 0.01408 and 0.009174 and −0.2388 and 0.03488 and 0.1774 and 0.2235 and 0.3021 and 0.2632. Further, the “upregulation of the expression of MCM message” value (“upregulation” below) in test [2] is recorded as 4 fold.

Take `CCC(=O)SCCNC(=O)CCNC(=O)[C@H](O)C(C)(C)COP(=O)(O)OP(=O)(O)OC[C@H]1O[C@@H](n2cnc3c(N)ncnc32)[C@H](O)[C@@H]1OP(=O)(O)O` [propionyl CoA]: the “upregulation” value in test [2] was 4 fold.

With `CC(C)[C@H](N)C(=O)O` [valine], in test [2], the “upregulation” value is given as 4 fold.
